Assay: Titration of approx. 200 mM sulfide in 24 hour old rumen fluid with 1 M MnCl2, BaCl2 or CaCl2, silver/sulfide electrode
Parameters: species or system Holstein cows
Method: 24 hour old undiluted rumen fluid from rumen fistulated Holstein cows was obtained. 4 ml of Na2S in water (approximately 1 M) was added to 16 ml of the rumen fluid. The final concentration of sulfide ion in the rumen fluid was approximately 200 mM. […] The progress of the reaction was followed using the same silver/sulfide electrode set-up described above (Orion, Ion Plus Silver/Sulfide 9616BNWP).

With `[Ba+2].[Cl-].[Cl-]` [BaCl2] the mVolts (Volume 0.0 of 1.0M BaCl2, ~200 mM sulfide) was 942.6 mVolts, the mVolts (Volume 0.3 of 1.0M BaCl2, ~200 mM sulfide) was 943.7 mVolts and the mVolts (Volume 0.4 of 1.0M BaCl2, ~200 mM sulfide) was 943.3 mVolts. It also gave a mVolts (Volume 0.6 of 1.0M BaCl2, ~200 mM sulfide) of 942.7 mVolts, a mVolts (Volume 0.8 of 1.0M BaCl2, ~200 mM sulfide) of 941.3 mVolts and a mVolts (Volume 1.0 of 1.0M BaCl2, ~200 mM sulfide) of 927.0 mVolts. For the same compound, the mVolts (Volume 1.2 of 1.0M BaCl2, ~200 mM sulfide) was 925.6 mVolts, the mVolts (Volume 1.4 of 1.0M BaCl2, ~200 mM sulfide) was 923.3 mVolts and the mVolts (Volume 1.6 of 1.0M BaCl2, ~200 mM sulfide) was 922.5 mVolts. For the same compound, the mVolts (Volume 1.8 of 1.0M BaCl2, ~200 mM sulfide) was 921.5 mVolts, the mVolts (Volume 2.0 of 1.0M BaCl2, ~200 mM sulfide) was 920.9 mVolts and the mVolts (Volume 2.2 of 1.0M BaCl2, ~200 mM sulfide) was 920.5 mVolts. For the same compound, the mVolts (Volume 2.4 of 1.0M BaCl2, ~200 mM sulfide) was 920.0 mVolts, the mVolts (Volume 2.6 of 1.0M BaCl2, ~200 mM sulfide) was 919.7 mVolts and the mVolts (Volume 2.8 of 1.0M BaCl2, ~200 mM sulfide) was 918.8 mVolts. The mVolts (Volume 3.0 of 1.0M BaCl2, ~200 mM sulfide) was 918.1 mVolts, the mVolts (Volume 3.2 of 1.0M BaCl2, ~200 mM sulfide) was 917.7 mVolts and the mVolts (Volume 3.4 of 1.0M BaCl2, ~200 mM sulfide) was 917.2 mVolts. For the same compound, the mVolts (Volume 3.6 of 1.0M BaCl2, ~200 mM sulfide) was 916.7 mVolts, the mVolts (Volume 3.8 of 1.0M BaCl2, ~200 mM sulfide) was 916.0 mVolts and the mVolts (Volume 4.0 of 1.0M BaCl2, ~200 mM sulfide) was 915.6 mVolts. For the same compound, the mVolts (Volume 4.2 of 1.0M BaCl2, ~200 mM sulfide) was 915.0 mVolts, the mVolts (Volume 4.4 of 1.0M BaCl2, ~200 mM sulfide) was 914.8 mVolts and the mVolts (Volume 4.6 of 1.0M BaCl2, ~200 mM sulfide) was 914.4 mVolts. For the same compound, the mVolts (Volume 4.8 of 1.0M BaCl2, ~200 mM sulfide) was 913.9 mVolts, the mVolts (Volume 5.0 of 1.0M BaCl2, ~200 mM sulfide) was 913.6 mVolts and the mVolts (Volume 5.2 of 1.0M BaCl2, ~200 mM sulfide) was 913.0 mVolts. For the same compound, the mVolts (Volume 5.4 of 1.0M BaCl2, ~200 mM sulfide) was 913.0 mVolts, the mVolts (Volume 5.6 of 1.0M BaCl2, ~200 mM sulfide) was 912.7 mVolts and the mVolts (Volume 5.8 of 1.0M BaCl2, ~200 mM sulfide) was 912.0 mVolts. The mVolts (Volume 6.0 of 1.0M BaCl2, ~200 mM sulfide) was 911.7 mVolts, the mVolts (Volume 6.5 of 1.0M BaCl2, ~200 mM sulfide) was 910.7 mVolts and the mVolts (Volume 7.0 of 1.0M BaCl2, ~200 mM sulfide) was 910.8 mVolts. It also gave a mVolts (Volume 7.5 of 1.0M BaCl2, ~200 mM sulfide) of 909.5 mVolts, a mVolts (Volume 8.0 of 1.0M BaCl2, ~200 mM sulfide) of 908.3 mVolts and a mVolts (Volume 8.5 of 1.0M BaCl2, ~200 mM sulfide) of 907.4 mVolts. The mVolts (Volume 9.0 of 1.0M BaCl2, ~200 mM sulfide) was 906.8 mVolts, the mVolts (Volume 9.5 of 1.0M BaCl2, ~200 mM sulfide) was 905.7 mVolts and the mVolts (Volume 10.0 of 1.0M BaCl2, ~200 mM sulfide) was 905.0 mVolts.

From patent US9826761B2, “Compositions and methods for mitigating dietary sulfur in animals” (SarTec Corporation, priority 2008, dated 2017)
